Experimental data from publication PMC5048337 (2016).

Tests used:
[1] = test system: c-Kit1 (FAM/TAMRA) (DNA, G4) AGGGAGGGCGCTGGGAGGAGGG; assay: FRET melting; conditions: 60 mM potassium cacodylate; pH 7.4; 1 μM compound, 0.2 μM oligonucleotide
[2] = test system: bcl2 (FAM/TAMRA) (DNA, G4) AGGGGCGGGCGCGGGAGGAAGGGGGCGGGAGCGGGGCTG; assay: FRET melting; conditions: 60 mM potassium cacodylate; pH 7.4; 1 μM compound, 0.2 μM oligonucleotide
[3] = test system: h-TERT (FAM/TAMRA) (DNA, G4) GGGGGCTGGGCCGGGGACCCGGGAGGGGTCGGGACGGGGCGGGG; assay: FRET melting; conditions: 60 mM potassium cacodylate; pH 7.4; 1 μM compound, 0.2 μM oligonucleotide
[4] = test system: h-TERT (DNA, G4) GGGGGCTGGGCCGGGGACCCGGGAGGGGTCGGGACGGGGCGGGG; assay: UV-Vis titration, intrinsic method (Rodger and Nordén); conditions: K+ 100 mM (KCl); 50 mM Tris-HCl, pH 7.5, 25 °C
[5] = test system: c-Kit1 (DNA, G4) AGGGAGGGCGCTGGGAGGAGGG; assay: UV-Vis titration, reciprocal plot (Wolfe); conditions: K+ 100 mM (KCl); 50 mM Tris-HCl, pH 7.5, 25 °C
[6] = test system: bcl2 (DNA, G4) AGGGGCGGGCGCGGGAGGAAGGGGGCGGGAGCGGGGCTG; assay: UV-Vis titration, intrinsic method (Rodger and Nordén); conditions: K+ 100 mM (KCl); 50 mM Tris-HCl, pH 7.5, 25 °C
[7] = test system: c-Kit1 (DNA, G4) AGGGAGGGCGCTGGGAGGAGGG; assay: as above; conditions: K+ 100 mM (KCl); 50 mM Tris-HCl, pH 7.5, 25 °C
[8] = test system: h-TERT (DNA, G4) GGGGGCTGGGCCGGGGACCCGGGAGGGGTCGGGACGGGGCGGGG; assay: UV-Vis titration, reciprocal plot (Wolfe); conditions: K+ 100 mM (KCl); 50 mM Tris-HCl, pH 7.5, 25 °C
[9] = test system: bcl2 (DNA, G4) AGGGGCGGGCGCGGGAGGAAGGGGGCGGGAGCGGGGCTG; assay: UV-Vis titration, reciprocal plot (Wolfe); conditions: K+ 100 mM (KCl); 50 mM Tris-HCl, pH 7.5, 25 °C

Structure (SMILES) | binding [1] | binding [2] | binding [3] | K b [4] | K b [5] | K b [6] | K b [7] | K b [8] | K b [9]
CC[N+](CC)(CC)Cc1ccc([O-])c(C=NCCN=Cc2cc(C[N+](CC)(CC)CC)ccc2[O-])c1.[Cu+2] | yes | yes | yes |  |  |  |  |  | 
CC[N+](CC)(CC)Cc1ccc([O-])c(C=NCCN=Cc2cc(C[N+](CC)(CC)CC)ccc2[O-])c1.[Ni+2] | yes | yes | yes | (3.7 ± 0.4) × 10^4 M^–1 | (2.4 ± 0.5) × 10^5 M^–1 | (3.4 ± 0.3) × 10^4 M^–1 | (4.9 ± 0.3) × 10^4 M^–1 | (1.1 ± 0.1) × 10^5 M^–1 | (2.0 ± 0.4) × 10^5 M^–1
